Results on 19 compounds are retold here after patent publication US6479482B2, “Alkylamine derivatives of dihydropyridine NPY antagonists” (Bristol-Myers Squibb Company, priority 2000, dated 2002).

In general, melting point refers to the temperature of the solid-liquid transition.

The target of data set [1] is T1, I-125 Bolton-Hunter labeled NPY in human neuroblastoma cells (SK-N-MC) (Homo sapiens, UniProt P25929).
T1 construct: displaces I-125 Bolton-Hunter labeled NPY in human neuroblastoma cells (SK-N-MC); endogenous in cells; host or cells: SK-N-MC human neuroblastoma cells
T1 sequence (P25929 1-384): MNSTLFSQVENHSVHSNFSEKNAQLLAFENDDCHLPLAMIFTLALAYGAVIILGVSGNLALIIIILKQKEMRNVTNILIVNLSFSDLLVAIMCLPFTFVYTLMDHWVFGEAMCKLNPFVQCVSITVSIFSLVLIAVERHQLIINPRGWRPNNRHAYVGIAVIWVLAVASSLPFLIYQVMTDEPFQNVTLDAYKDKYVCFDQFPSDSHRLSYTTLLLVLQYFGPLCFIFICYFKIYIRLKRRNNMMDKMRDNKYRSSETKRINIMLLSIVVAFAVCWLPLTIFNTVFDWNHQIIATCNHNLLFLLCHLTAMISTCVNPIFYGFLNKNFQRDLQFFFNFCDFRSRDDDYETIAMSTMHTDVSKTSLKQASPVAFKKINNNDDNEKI
To be noted: cited from earlier work.

Data set [2] has as its system NPY-induced increase in intracellular Ca^++ in SK-N-MC cells. As to conditions: cited from earlier work.
The subject of data set [3] is NPY-induced pressor response. As to conditions: pithed rat; cited from earlier work.
Data set [4] has as its system NPY-induced contractions in guinea pig basilar artery. As to conditions: cited from earlier work.
For data set [5], the system named is NPY-induced Ca^++ entry in HEL cells. To be noted: cited from earlier work.
Data set [6] has as its system NPY-related increases in diastolic blood pressure. To be noted: anesthetized guinea pig; cited from earlier work.
The target in data set [7] is T2, I-125 labeled NPY and PYY in human neuroblastoma cells (Homo sapiens, UniProt P25929).
T2 construct: displacing I-125 labeled NPY and PYY in human neuroblastoma cells; endogenous in cells
T2 sequence (P25929 1-384): T1 sequence (P25929 1-384)
As to conditions: cited from earlier work.

Compound `COC(=O)C1=C(C)NC(C)=C(C(=O)OC)C1c1cccc(NC(=O)NCCCN2CCN(CC3CC3)CC2)c1.Cl.Cl` came in with a melting point of 145 to 150 °C.

Turning to `COC(=O)C1=C(C)NC(C)=C(C(=O)OC)C1c1cccc(NC(=O)NCCCN2CCN(C(C)(C)C)CC2)c1.Cl.Cl`, the melting point was in the range of 175 to 180 °C.

Regarding `COC(=O)C1=C(C)NC(C)=C(C(=O)OC)C1c1cccc(NC(=O)NCCCN2CCN(C3CCCC3)CC2)c1.Cl.Cl`, the melting point lay within 195 to 200 °C.

Turning to `COC(=O)C1=C(C)NC(C)=C(C(=O)OC)C1c1cccc(NC(=O)NCCCN2CCNCC2)c1.Cl.Cl`, the melting point was in the range of 120 to 130 °C.

In the case of `COC(=O)C1=C(C)NC(C)=C(C(=O)OC)C1c1cccc(NC(=O)NCCCN2CCC(=O)CC2)c1.Cl`, the melting point fell in the range of 70 to 75 °C.

Compound `CCN1CCN(CCCNC(=O)Nc2cccc(C3C(C(=O)OC)=C(C)NC(C)=C3C(=O)OC)c2)CC1.Cl.Cl` had a melting point of 120 to 125 °C.

`CCCN1CCN(CCCNC(=O)Nc2cccc(C3C(C(=O)OC)=C(C)NC(C)=C3C(=O)OC)c2)CC1.Cl.Cl` had a melting point of 190 to 200 °C.

In turn, `COC(=O)C1=C(C)NC(C)=C(C(=O)OC)C1c1cccc(NC(=O)NCCCN2CCN(C(C)C)CC2)c1.Cl.Cl` came in with a melting point of 170 to 180 °C.

For the compound `CCCCN1CCN(CCCNC(=O)Nc2cccc(C3C(C(=O)OC)=C(C)NC(C)=C3C(=O)OC)c2)CC1.Cl.Cl`, the melting point was in the range of 145 to 150 °C.

As for `COC(=O)C1=C(C)NC(C)=C(C(=O)OC)C1c1cccc(NC(=O)NCCCN2CCN(CC(C)C)CC2)c1.Cl.Cl`, the melting point is 165 to 170 °C.

As for `NC(N)=NCCC[C@@H](NC(=O)C(c1ccccc1)c1ccccc1)C(=O)NCc1ccc(O)cc1` [BIBP 3226], the “displacement of I-125 Bolton-Hunter labeled NPY” value in data set [1] is “displaces”. Moreover, in data set [2], the “antagonism of NPY-induced increase in intracellular Ca++” value is recorded as “antagonized”. For the same compound, the “antagonism of NPY-induced pressor response” value in data set [3] is recorded as “antagonizing”.

Consider `O=P(O)(O)OC1[C@H](OP(=O)(O)O)[C@H](O)C(O)[C@H](O)[C@H]1OP(=O)(O)O` (stereo partly drawn) [D-Myo-inositol-1,2,6-triphosphate], for which, in data set [4], the “antagonism of NPY-induced contractions” value is “potent but non-competitive antagonist”.

The compound `COC(=O)C1=C(C)NC(C)=C(C(=O)OC)C1c1cccc(NC(=O)NCCCN2CCN(C(=O)OC(C)(C)C)CC2)c1` [Example 13, 4-[3-[[[[3-[4-[(1,1-Dimethylethoxy)carbonyl]-1-piperazinyl]propyl]amino]-carbonyl]amino]phenyl]-1,4-dihydro-2,6-dimethyl-3,5-pyridinedicarboxylic acid, dimethyl ester] had a melting point of 125 to 130 °C.

The compound `COC(=O)C1=C(C)NC(C)=C(C(=O)OC)C1c1cccc(NC(=O)NCCCN2CCC3(CC2)OCCO3)c1` [Example 14, 4-[3-[[[[3-(1,4-Dioxa-8-azaspiro[4.5]decan-8-yl)propyl]amino]carbonyl]-amino]phenyl]-1,4-dihydro-2,6-dimethyl-3,5-pyridinedicarboxylic acid, dimethyl ester] showed a melting point of 100 to 105 °C.

Take `COC(=O)C1=C(C)NC(C)=C(C(=O)OC)C1c1ccc(F)c(NC(=O)NCCCN2CCC(C)CC2)c1` [Example 17, 4-[4-Fluoro-3-[[[[3-(4-methyl-1-piperidinyl)propyl]amino]carbonyl]-amino]phenyl]-1,4-dihydro-2,6-dimethyl-3,5-pyridinedicarboxylic acid, dimethyl ester]: the melting point fell in the range of 188 to 190 °C.

Consider `COC(=O)C1=C(C)NC(C)=C(C(=O)OC)C1c1ccc(F)c(NC(=O)NCCCN2CCC(C(C)C)CC2)c1` [Example 20, 4-[4-Fluoro-3-[[[[3-[4-(1-methylethyl)-1-piperidinyl]propyl]amino]-carbonyl]amino]phenyl]-1,4-dihydro-2,6-dimethyl-3,5-pyridinedicarboxylic acid, dimethyl ester], for which the melting point is 176 to 179 °C.

As for `COC(=O)C1=C(C)NC(C)=C(C(=O)OC)C1c1ccc(F)c(NC(=O)NCCCN2CCC(C(C)(C)C)CC2)c1` [Example 21, 4-[4-Fluoro-3-[[[[3-[4-(1,1-dimethylethyl)-1-piperidinyl]propyl]amino]-carbonyl]amino]phenyl]-1,4-dihydro-2,6-dimethyl-3,5-pyridinedicarboxylic acid, dimethyl ester], the melting point lay in the range of 191 to 193 °C.

As for `N=C(NCCCc1cnc[nH]1)NCCC(c1cc(F)cc(F)c1)c1ccccn1` (stereo not shown) [He 90481], in data set [5], the “pA2, antagonism of NPY-induced Ca++ entry” value was 4.43.

For the compound `CN(C)CC1CCC(CN=C(N)c2ccc(C[C@@H](NC(=O)[C@@H](Cc3ccccc3)NS(=O)(=O)c3ccc4ccccc4c3)C(=O)N3CCCC3)cc2)CC1` (stereo partly shown) [SR 120819A], the “antagonism of NPY-related increases in diastolic blood pressure” value in data set [6] is “antagonized”. Further, the “displacement of I-125 labeled NPY and PYY” value in data set [7] is recorded as “displacing”.
